Common to all, as to conditions: in vivo
Series [1] is described as follows: Toxicity in CD-1 mouse assessed as ataxia at 5 mg/kg, po administered as single dose via gavage measured after 5 hrs. Type of series: organism-based.
A short description of series [2]: Toxicity in CD-1 mouse at 5 mg/kg, po administered as single dose via gavage. Type of series: organism-based.
Series [3] can be described thus: Hepatotoxicity in CD-1 mouse assessed as appearance of mottled organ at 10 mg/kg, po administered as single dose via gavage measured after 24 hrs. The series is classed as toxicity, organism-based.
Series [4] in a line: Toxicity in CD-1 mouse assessed as gastrointestinal bleeding at 10 mg/kg, po administered as single dose via gavage measured after 24 hrs. The series is classed as organism-based.
The nature of series [5]: Ratio of fCmax in CD-1 mouse at 10 mg/kg, po to IC50 for PARG in human HeLa cells. Type of series: ADME, organism-based.
A short description of series [6]: Hepatotoxicity in CD-1 mouse assessed as appearance of pale yellow color organ at 10 mg/kg, po administered as single dose via gavage measured after 24 hrs. The series is classed as toxicity, organism-based.
The nature of series [7]: Toxicity in CD-1 mouse at 160 mg/kg, po administered as single dose via gavage. Type of series: organism-based.

The record followed here is ChEMBL document CHEMBL4330125, “Fluoromethylcyclopropylamine derivatives as potential in vivo toxicophores - A cautionary disclosure” (Bioorg Med Chem Lett, 2019).

As for `CCn1c(=O)n(Cc2cnn(C)c2)c(=O)c2cc(S(=O)(=O)NC3(C)CC3)ccc21`, the Activity entry in series [1] is listed as “Toxic”; in series [2], “Non-Toxic”.
For `Cn1cc(Cn2c(=O)c3cc(S(=O)(=O)NC4(C)CC4)ccc3n(C)c2=O)cn1` the same measures were “Toxic” and “Non-Toxic”.
In the case of `CCn1c(=O)n(Cc2cnn(C)c2)c(=O)c2cc(S(=O)(=O)NC3(CF)CC3)ccc21`, the Activity entry in series [1] is given as “Toxic”; in series [3], “Toxic”; in series [4], “Toxic”; in series [2], “Non-Toxic”; in series [6], “Toxic”. Moreover, the Ratio result in series [5] was “Nd(Toxic)”.
For the compound `Cn1cc(Cn2c(=O)c3cc(S(=O)(=O)NC4(CF)CC4)ccc3n(C)c2=O)cn1`, the Activity result in series [1] was “Toxic”.
In the case of `Cn1cc(Cn2c(=O)c3cc(S(=O)(=O)NC4(CF)CC4)ccc3n(Cc3ccn(C)n3)c2=O)cn1`, the Activity result in series [2] is “Non-Toxic”.
As to `Cn1cc(Cn2c(=O)c3cc(S(=O)(=O)NC4(C)CC4)ccc3n(Cc3ccn(C)n3)c2=O)cn1`, the Activity result in series [7] and in series [2] was “Non-Toxic” each time.
Consider `CCn1c(=O)n(Cc2cc(C)on2)c(=O)c2cc(S(=O)(=O)NC3(CF)CC3)ccc21`, for which the Activity entry in series [1] is on record as “Toxic”.
